# Target: T1, FGFR3 (Homo sapiens, UniProt P22607)
# T1 construct: FGFR3's cytoplasmic domain [436-806 (terminal) amino acids]; purchased Carna 08-135
# Test: FGFR3 kinase activity inhibition assay (LanthaScreen TR-FRET)
# Assay type: biochemical
# Details: not given
# Protocol: PV3552) and 10 mM EDTA were added to quench the kinase reaction, and incubated at 22°C for 60 minutes. • ⑤ The reaction was measured using a PerkinElmer EnVision multimode plate reader through TR-FRET dual wavelength detection. • 1. The RFU values were copied from the Envision program. • 2. The ratio of RFU 520nm/RFU 495nm was calculated. • 3. The value of the ratio was converted to a percentage inhibition value. % Inhibition = (max-data)/(max-min) × 100 [formula] "Min" represents the ratio of the control without enzyme, "max" represents the ratio of the DMSO control, and "data" represents the ratio of the compounds in wells with different concentrations. […] "Top" refers to the maximum response, "Bottom" refers to the minimum response, and "HillSlope" refers to the slope of the curve. According to the same method as that in the FGFR1 kinase activity inhibition assay, the inhibitory activities against FGFR2, FGFR3 and FGFR4 were tested using FGFR2's cytoplasmic domain [399-821 (terminal) amino acids] (Carna: 08-134), FGFR3's cytoplasmic domain [436-806 (terminal) amino acids] (Carna: 08-135) and FGFR4's cytoplasmic domain [460-802 (terminal) amino acids] (Carna: 08-136), respectively. […]
# T1 sequence (P22607 436-806): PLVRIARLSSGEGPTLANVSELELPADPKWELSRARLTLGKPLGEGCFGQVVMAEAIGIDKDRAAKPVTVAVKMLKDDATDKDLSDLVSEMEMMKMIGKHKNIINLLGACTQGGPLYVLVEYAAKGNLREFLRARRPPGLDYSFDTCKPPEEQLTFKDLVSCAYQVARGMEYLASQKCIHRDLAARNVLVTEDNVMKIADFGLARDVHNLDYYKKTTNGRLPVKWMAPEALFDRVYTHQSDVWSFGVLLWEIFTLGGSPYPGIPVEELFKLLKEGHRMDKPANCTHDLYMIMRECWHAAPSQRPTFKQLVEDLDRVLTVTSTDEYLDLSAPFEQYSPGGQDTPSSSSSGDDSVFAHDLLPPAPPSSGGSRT
row,SMILES,IC50
1,"C[C@@H](Oc1ccc2[nH]nc(-c3ccc(N4CCOCC4)nc3)c2n1)c1c(Cl)cncc1Cl [Example 33, (R)-4-(5-(5-(1-(3,5-dichloropyridin-4-yl)ethoxy)-1H-pyrazolo[4,3-b]pyridin-3-yl)pyridin-2-yl)morpholine]",10 to 100 nM
2,"C[C@@H](Oc1ccc2[nH]nc(-c3cnn(CC(C)(C)O)c3)c2n1)c1c(Cl)cncc1Cl [Example 38, (R)-1-(4-(5-(1-(3,5-dichloropyridin-4-yl)ethoxy)-1H-pyrazolo[4,3-b]pyridin-3-yl)-1H-pyrazol-1-yl)-2-methylpropan-2-ol]",10 to 100 nM

# Same assay, conditions: FGFR3 kinase, TR-FRET; read-out: IC50 (nM) FGFR3
row,SMILES,IC50
1,"CC(C)c1cc(O[C@H](C)c2c(Cl)cncc2Cl)cc2c(-c3cnn(C)c3)n[nH]c12 [Example 6, (R)-5-(1-(3,5-dichloropyridin-4-yl)ethoxy)-7-isopropyl-3-(1-methyl-1H-pyrazol-4-yl)-1H-indazole]",> 100 nM
2,"Cc1c[nH]c(-c2n[nH]c3c(C)cc(O[C@H](C)c4c(Cl)cncc4Cl)cc23)n1 [Example 9, (R)-5-(1-(3,5-dichloropyridin-4-yl)ethoxy)-7-methyl-3-(4-methyl-1H-imidazol-2-yl)-1H-indazole]",> 100 nM
3,"C[C@@H](Oc1ccc2[nH]nc(-c3cnn4ccccc34)c2n1)c1c(Cl)cncc1Cl [Example 43, (R)-5-(1-(3,5-dichloropyridin-4-yl)ethoxy)-3-(pyrazolo[1,5-a]pyridin-3-yl)-1H-pyrazolo[4,3-b]pyridine]",> 100 nM
4,"C[C@@H](Oc1ccc2[nH]nc(-c3cnn4c3CCCC4)c2n1)c1c(Cl)cncc1Cl [Example 44, (R)-5-(1-(3,5-dichloropyridin-4-yl)ethoxy)-3-(4,5,6,7-tetrahydropyrazolo[1,5-a]pyridin-3-yl)-1H-pyrazolo[4,3-b]pyridine]",> 100 nM
5,"CC(C)n1cc(-c2n[nH]c3ccc(O[C@H](C)c4c(Cl)cncc4Cl)nc23)cn1 [Example 47, (R)-5-(1-(3,5-dichloropyridin-4-yl)ethoxy)-3-(1-isopropyl-1H-pyrazol-4-yl)-1H-pyrazolo[4,3-b]pyridine]",10 to 100 nM
6,"CC(C)Cn1cc(-c2n[nH]c3ccc(O[C@H](C)c4c(Cl)cncc4Cl)nc23)cn1 [Example 51, (R)-5-(1-(3,5-dichloropyridin-4-yl)ethoxy)-3-(1-isobutyl-1H-pyrazol-4-yl)-1H-pyrazolo[4,3-b]pyridine]",> 100 nM
7,"Cn1cc(-c2n[nH]c3ccc(C(=O)NCC(C)(C)O)cc23)cn1 [Example 67, N-(2-hydroxy-2-methylpropyl)-3-(1-methyl-1H-pyrazol-4-yl)-1H-indazole-5-carboxamide]",> 100 nM
8,"Cn1cc(-c2n[nH]c3ccc(C(=O)NCC4CNC4)cc23)cn1 [Example 68, N-(azetidin-3-ylmethyl)-3-(1-methyl-1H-pyrazol-4-yl)-1H-indazole-5-carboxamide]",> 100 nM
9,"Cn1cc(-c2n[nH]c3ccc(C(=O)NCC4CCCNC4)cc23)cn1 (stereo not shown) [Example 69, 3-(1-methyl-1H-pyrazol-4-yl)-N-(piperidin-3-ylmethyl)-1H-indazole-5-carboxamide]",> 100 nM
10,"CNCCNC(=O)c1cc(F)c2[nH]nc(-c3cnn(CCN4CCOCC4)c3)c2c1 [Example 70, 7-fluoro-N-(2-(methylamino)ethyl)-3-(1-(2-morpholinoethyl)-1H-pyrazol-4-yl)-1H-indazole-5-carboxamide]",> 100 nM
11,"CNCCNC(=O)c1cc2c(-c3cnn(C)c3)n[nH]c2cc1-c1cc(OC)cc(OC)c1 [Example 71, 6-(3,5-dimethoxyphenyl)-3-(1-methyl-1H-pyrazol-4-yl)-N-(2-(methylamino)ethyl) -1H-indazole-5-carboxamide]",> 100 nM
12,"CNCCNC(=O)c1cc2c(-c3cnn(C)c3)n[nH]c2cc1OC [Example 72, 6-methoxy-3-(1-methyl-1H-pyrazol-4-yl)-N-(2-(methylamino)ethyl)-1H-indazole-5-carboxamide]",> 100 nM
13,CNCCNC(=O)c1cc2c(-c3cnn(C)c3)n[nH]c2cc1F [Example 73],> 100 nM
14,"CNCCn1cc(-c2ccc3[nH]nc(-c4nc(C)c[nH]4)c3c2)nn1 [Example 75, N-methyl-2-(4-(3-(4-methyl-1H-imidazol-2-yl)-1H-indazol-5-yl)-1H-1,2,3-triazol-1-yl)ethan-1-amine]",> 100 nM
15,"Cc1cccc(C)c1NC(=O)c1ccc2[nH]nc(-c3cnn(C)c3)c2c1 [Example 77, N-(2,6-dimethylphenyl)-3-(1-methyl-1H-pyrazol-4-yl)-1H-indazole-5-carboxamide]",> 100 nM
16,"Cn1cc(-c2n[nH]c3ccc(C(=O)NCc4c(Cl)cncc4Cl)cc23)cn1 [Example 78, N-((3,5-dichloropyridin-4-yl)methyl)-3-(1-methyl-1H-pyrazol-4-yl)-1H-indazole-5-carboxamide]",> 100 nM
17,"Cc1c[nH]c(-c2n[nH]c3ccc(C(=O)NCC4CCNC4)cc23)n1 (stereo not shown) [Example 79, 3-(4-methyl-1H-imidazol-2-yl)-N-(pyrrolidin-3-ylmethyl)-1H-indazole-5-carboxamide]",> 100 nM

row,SMILES,IC50
1,Cc1c[nH]c(-c2n[nH]c3ccc(C(=O)NCc4ncc[nH]4)cc23)n1 [Example 81],> 100 nM
2,"CNCCNC(=O)c1ccc2[nH]nc(-c3nc(-c4ccccc4)c[nH]3)c2c1 [Example 82, N-(2-(methylamino)ethyl)-3-(4-phenyl-1H-imidazol-2-yl)-1H-indazole-5-carboxamide]",> 100 nM
3,"CNCCNC(=O)c1ccc2[nH]nc(-c3nc4c([nH]3)CN(C)C4)c2c1 [Example 83, 3-(5-methyl-1,4,5,6-tetrahydropyrrolo[3,4-d]imidazol-2-yl)-N-(2-(methylamino)ethyl)-1H-indazole-5-carboxamide]",> 100 nM
4,"CNCCNC(=O)c1ccc2[nH]nc(-c3nc4cc(N5CCN(C)CC5)ccc4[nH]3)c2c1 [Example 84, N-(2-(methylamino)ethyl)-3-(5-(4-methylpiperazin-1-yl)-1H-benzo[d]imidazol-2-yl)-1H-indazole-5-carboxamide]",> 100 nM
5,"CC(Oc1ccc2[nH]nc(-c3cnn(C)c3)c2c1)C1CCOCC1 (stereo not shown) [Example 86, 3-(1-methyl-1H-pyrazol-4-yl)-5-(1-(tetrahydro-2H-pyran-4-yl)ethoxy)-1H-indazole]",> 100 nM
6,"CC(Oc1ccc2[nH]nc(-c3cnn(C)c3)c2c1)c1ccn2ccnc2c1 (stereo not shown) [Example 89, 5-(1-(imidazo[1,2-a]pyridine-7-yl)ethoxy)-3-(1-methyl-1H-pyrazol-4-yl)-1H-indazole]",> 100 nM
7,"Cn1cc(-c2n[nH]c3ccc(OC4CCCc5cnccc54)cc23)cn1 (stereo not shown) [Example 90, 5-((3-(1-methyl-1H-pyrazol-4-yl)-1H-indazol-5-yl)oxy)-5,6,7,8-tetrahydroisoquin oline]",> 100 nM
8,"CC(Oc1ccc2[nH]nc(-c3cnn(C)c3)c2c1)c1nccs1 (stereo not shown) [Example 91, 2-(1-((3-(1-methyl-1H-pyrazol-4-yl)-1H-indazol-5-yl)oxy)ethyl)thiazole]",10 to 100 nM
9,"CC(Oc1ccc2[nH]nc(-c3cnn(C)c3)c2c1)c1ccnc2ncccc12 (stereo not shown) [Example 93, 4-(1-((3-(1-methyl-1H-pyrazol-4-yl)-1H-indazol-5-yl)oxy)ethyl)-1,8-naphthyridine]",10 to 100 nM
10,"CC(Oc1ccc2[nH]nc(-c3cnn(C)c3)c2c1)c1cccc2c1OCCO2 (stereo not shown) [Example 97, 5-(1-(2,3-dihydrobenzo[b][1,4]dioxan-5-yl)ethoxy)-3-(1-methyl-1H-pyrazol-4-yl)-1H-indazole]",> 100 nM
11,"CC(Oc1ccc2[nH]nc(-c3cnn(C)c3)c2c1)c1c(F)ccc2ncccc12 (stereo not shown) [Example 102, 6-fluoro-5-(1-((3-(1-methyl-1H-pyrazol-4-yl)-1H-indazol-5-yl)oxy)ethyl)qu inoline]",1 to 10 nM
12,"CC(Oc1ccc2[nH]nc(-c3cnn(C)c3)c2c1)c1cccc2ncn(C)c12 (stereo not shown) [Example 103, 5-(1-(1-methyl-1H-benzo[d]imidazol-7-yl)ethoxy)-3-(1-methyl-1-H-pyrazol-4-yl)-1H-indazole]",1 to 10 nM
13,"CC(Oc1ccc2[nH]nc(-c3cnn(C)c3)c2c1)c1cccc2cnccc12 (stereo not shown) [Example 104, 5-(1-((3-(1-methyl-1H-pyrazol-4-yl)-1H-indazol-5-yl)oxy)ethyl)isoq uinoline]",1 to 10 nM
14,"CC(Oc1ccc2[nH]nc(-c3cnn(C)c3)c2c1)c1cccc2cccnc12 (stereo not shown) [Example 105, 8-(1-((3-(1-methyl-1H-pyrazol-4-yl)-1H-indazol-5-yl)oxy)ethyl)quin oline]",10 to 100 nM
15,"CC(Oc1ccc2[nH]nc(-c3cnn(C)c3)c2c1)c1cccc2occc12 (stereo not shown) [Example 106, 5-(1-(benzofuran-4-yl)ethoxy)-3-(1-methyl-1H-pyrazol-4-yl)-1H-indazole]",10 to 100 nM
16,"CC(Oc1ccc2[nH]nc(-c3cnn(C)c3)c2c1)c1cncc2ncccc12 (stereo not shown) [Example 108, 5-(1-((3-(1-methyl-1H-pyrazol-4-yl)-1H-indazol-5-yl)oxy)ethyl)-1,7-naphthyridine]",> 100 nM
17,CC(Oc1ccc2[nH]nc(-c3cnn(C)c3)c2c1)c1cccc2scnc12 (stereo not shown) [Example 109],10 to 100 nM

# Same assay, conditions: read-out: IC50 (nM) FGFR3; FGFR3 kinase, TR-FRET
row,SMILES,IC50
1,"CNCCN(C)C(=O)c1ccc2[nH]nc(-c3cnn(C)c3)c2c1 [Example 66, N-methyl-3-(1-methyl-1H-pyrazol-4-yl)-N-(2-(methylamino)ethyl) -1H-indazole-5-carboxamide]",> 100 nM
